Reference: the NIST ThermoML archive (doi:10.1021/je060339m)

Conditions: Liquid

CCOC(C)=O [ethyl acetate]
Conditions	mass density [kg/m3]
343.15 K, 15000 kPa	857.3
343.15 K, 20000 kPa	863
343.15 K, 25000 kPa	868.5
343.15 K, 30000 kPa	875.1
343.15 K, 35000 kPa	881.6
348.15 K, 100 kPa	829.4
348.15 K, 1000 kPa	830.5
348.15 K, 2000 kPa	832.3
348.15 K, 3000 kPa	833.8
348.15 K, 3800 kPa	835
348.15 K, 5000 kPa	836.8
348.15 K, 10000 kPa	845.5
348.15 K, 15000 kPa	851.8
348.15 K, 20000 kPa	857.7
348.15 K, 25000 kPa	863.5
348.15 K, 30000 kPa	870.2
348.15 K, 35000 kPa	877
353.15 K, 1000 kPa	824.3
353.15 K, 2000 kPa	826
353.15 K, 3000 kPa	827.5
353.15 K, 3800 kPa	828.8
353.15 K, 5000 kPa	830.6
353.15 K, 10000 kPa	837.7
353.15 K, 15000 kPa	844.3
353.15 K, 20000 kPa	850.4
353.15 K, 25000 kPa	856.1
353.15 K, 30000 kPa	862.7
353.15 K, 35000 kPa	869.6
358.15 K, 1000 kPa	818.4
358.15 K, 2000 kPa	820
358.15 K, 3000 kPa	821.6
358.15 K, 3800 kPa	822.8
358.15 K, 5000 kPa	824.7
358.15 K, 10000 kPa	832.1
358.15 K, 15000 kPa	838.9
358.15 K, 20000 kPa	845.2
358.15 K, 25000 kPa	851
358.15 K, 30000 kPa	857.6
358.15 K, 35000 kPa	864.7
363.15 K, 1000 kPa	811.8
363.15 K, 2000 kPa	813.5
363.15 K, 3000 kPa	815.3
363.15 K, 3800 kPa	816.6
363.15 K, 5000 kPa	818.5
363.15 K, 10000 kPa	826.3
363.15 K, 15000 kPa	833.3
363.15 K, 20000 kPa	839.7
363.15 K, 25000 kPa	845.8
363.15 K, 30000 kPa	852.9
363.15 K, 35000 kPa	860.2
368.15 K, 1000 kPa	804.9
368.15 K, 2000 kPa	806.8
368.15 K, 3000 kPa	808.6
368.15 K, 3800 kPa	810
368.15 K, 5000 kPa	812.1
368.15 K, 10000 kPa	820.2
368.15 K, 15000 kPa	827.5
368.15 K, 20000 kPa	834.3
368.15 K, 25000 kPa	840.6
368.15 K, 30000 kPa	848
368.15 K, 35000 kPa	855.5
373.15 K, 1000 kPa	798.5
373.15 K, 2000 kPa	800.4
373.15 K, 3000 kPa	802.4
373.15 K, 3800 kPa	803.8
373.15 K, 5000 kPa	806
373.15 K, 10000 kPa	814.4
373.15 K, 15000 kPa	822
373.15 K, 20000 kPa	829
373.15 K, 25000 kPa	835.5
373.15 K, 30000 kPa	843
373.15 K, 35000 kPa	850.6
378.15 K, 1000 kPa	791.8
378.15 K, 2000 kPa	793.8
378.15 K, 3000 kPa	795.8
378.15 K, 3800 kPa	797.3
378.15 K, 5000 kPa	799.6
378.15 K, 10000 kPa	808.5
378.15 K, 15000 kPa	816.5
378.15 K, 20000 kPa	823.7
378.15 K, 25000 kPa	830.5
378.15 K, 30000 kPa	838.4
378.15 K, 35000 kPa	846.3
383.15 K, 1000 kPa	784.8
383.15 K, 2000 kPa	787.1
383.15 K, 3000 kPa	789.1
383.15 K, 3800 kPa	790.8
383.15 K, 5000 kPa	793.2
383.15 K, 10000 kPa	802.4
383.15 K, 15000 kPa	810.7
383.15 K, 20000 kPa	818.2
383.15 K, 25000 kPa	825.3
383.15 K, 30000 kPa	833.5
383.15 K, 35000 kPa	841.6
388.15 K, 1000 kPa	778.2
388.15 K, 2000 kPa	780.5
388.15 K, 3000 kPa	782.7
388.15 K, 3800 kPa	784.4
388.15 K, 5000 kPa	786.9
388.15 K, 10000 kPa	796.4
388.15 K, 15000 kPa	805.1
388.15 K, 20000 kPa	813
388.15 K, 25000 kPa	820.3
388.15 K, 30000 kPa	828.8
388.15 K, 35000 kPa	837.2
393.15 K, 1000 kPa	771
393.15 K, 2000 kPa	773.5
393.15 K, 3000 kPa	775.9
393.15 K, 3800 kPa	777.7
393.15 K, 5000 kPa	780.4
393.15 K, 10000 kPa	790.5
393.15 K, 15000 kPa	799.4
393.15 K, 20000 kPa	807.6
393.15 K, 25000 kPa	815.2
393.15 K, 30000 kPa	823.9
393.15 K, 35000 kPa	832.4
